Results: patent US20230089582A1, “1,2,4-TRIAZINE-3,5-DIONE COMPOUND, PREPARATION METHOD THEREFOR, AND APPLICATION THEREOF” (KPC PHARMACEUTICALS, INC, priority 2019, published 2023)

What was measured:
in vitro = conditions: microsomes, pH 7.4
Description: The stop solution was an acetonitrile solution containing tolbutamide and propranolol (both internal standards).
Phosphate buffer was 100 mM K3PO4 (pH=7.4) buffer containing 3.3 mM MgCl2.
The liver microsome incubation system was in 100 mM phosphate buffer containing 0.2 mg/mL liver microsomal protein and 1 μM test substance/positive control.
80 μL of the mixture was transferred from the incubation system to 400 μL of stop solution to precipitate proteins, and 20 μL of NADPH regeneration system was added after vortexing as a 0 min sample point.
130 μL of NADPH regeneration system was added to the remaining 520 μL of protein drug mixture and mixed well to start incubation. The final incubation system was 650 μL, containing 0.2 mg/mL liver microsomal protein, 1 μM test substance/positive control, 1.3 mM NADP, 3.3 mM G-6-P and 0.6 U/mL G-6-PDH.

THRβ = biological target: T1, THRβ (Homo sapiens, UniProt P10828); assay: THRβ binding assay (TR-FRET co-activating peptide recruitment); assay type: biochemical; conditions: THRβ-LBD/RXRα, SRC2-2 co-activating peptide recruitment, agonistic effect
T1 construct: RXRα and GST-tagged THRβ-LBD
Description: Experimental method: In vitro analysis of the agonistic effect of the compounds on THRβ was performed using a time-resolved fluorescence resonance energy transfer co-activating peptide recruitment assay. The assay used Eu-anti-GST antibody, biotin-SRC2-2 co-activating peptide, streptavidin-d2, RXRα and GST-tagged THRβ-LBD. The Eu-anti-GST antibody indirectly labeled THRβ-LBD by binding to GST tag. Streptavidin-d2 indirectly labeled the SRC2-2 co-activating peptide by binding to biotin tag. In the presence of RXRα, THRβ-LBD can form a heterodimer THRβ-LBD/RXRα with it. The agonist bound to THRβ-LBD/RXRα and caused a conformational change of THRβ-LBD, thereby increasing the recruitment capacity of the heterodimer to the SRC2-2 co-activating peptide. Furthermore, the resulting decreased distance between the d2-labeled SRC2-2 co-activating peptide and the Eu-anti-GST antibody increased the […] signal. The agonistic ability of a compound can be assessed based on the effect of different concentrations of the compound on THRβ activity.
The detailed procedure is as follows.
a. 100× reference compound or compound was prepared with DMSO and diluted in 1:3.
e. The plates were centrifuged at 1000 rpm for 1 min and incubated for 4 h at room temperature shielded from light.

THRα = THRα (Homo sapiens, UniProt P10827); assay: THRα binding assay (TR-FRET co-activating peptide recruitment); assay type: biochemical; conditions: THRα instead of THRβ, agonistic effect
THRα, sequence (P10827 163-410 isoform P10827-2 limits assumed, other chains not shown): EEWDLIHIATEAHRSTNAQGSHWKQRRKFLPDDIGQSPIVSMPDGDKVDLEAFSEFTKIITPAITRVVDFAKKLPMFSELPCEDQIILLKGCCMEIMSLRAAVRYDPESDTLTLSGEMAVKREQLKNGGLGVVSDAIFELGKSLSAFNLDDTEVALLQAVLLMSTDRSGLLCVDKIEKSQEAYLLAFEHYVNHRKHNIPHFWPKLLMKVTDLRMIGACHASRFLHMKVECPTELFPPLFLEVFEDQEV
THRα, sequence (P19793 whole entry partner, other chains not shown): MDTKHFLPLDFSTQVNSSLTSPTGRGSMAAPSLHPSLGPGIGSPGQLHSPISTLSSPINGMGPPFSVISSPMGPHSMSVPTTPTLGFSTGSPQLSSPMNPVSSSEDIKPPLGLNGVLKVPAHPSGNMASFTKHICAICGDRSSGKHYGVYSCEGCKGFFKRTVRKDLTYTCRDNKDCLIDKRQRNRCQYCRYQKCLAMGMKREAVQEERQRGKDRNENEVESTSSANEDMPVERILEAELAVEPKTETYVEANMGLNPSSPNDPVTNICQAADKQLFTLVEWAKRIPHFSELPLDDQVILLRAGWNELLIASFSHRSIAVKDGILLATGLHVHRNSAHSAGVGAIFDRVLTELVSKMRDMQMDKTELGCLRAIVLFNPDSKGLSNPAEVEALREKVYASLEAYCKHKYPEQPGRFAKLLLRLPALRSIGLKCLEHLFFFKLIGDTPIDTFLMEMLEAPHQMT

T1 sequence (P10828 217-461 limits assumed, other chains not shown): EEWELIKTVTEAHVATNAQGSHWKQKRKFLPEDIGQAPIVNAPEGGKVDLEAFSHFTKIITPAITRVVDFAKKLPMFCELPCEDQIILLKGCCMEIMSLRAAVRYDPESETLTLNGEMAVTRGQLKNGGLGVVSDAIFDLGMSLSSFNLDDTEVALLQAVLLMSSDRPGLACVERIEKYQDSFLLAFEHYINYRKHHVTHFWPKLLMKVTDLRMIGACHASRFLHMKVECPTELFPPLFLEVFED
T1 sequence (P19793 whole entry partner, other chains not shown, the tested form may be a part): as the sequence (P19793 whole entry partner, other chains not shown) above

Row | EC50 (THRβ) [nM] | Emax (THRβ) [%] | EC50 (THRα) [nM] | Emax (THRα) [%] | Compound | further results
1 | 94 | 110 | 1410 | 112 | O=c1[nH]nc(Oc2c(Cl)cc(-n3nc(CF)c(=O)[nH]c3=O)cc2Cl)cc1C1CCCC1 [Example 10, 2-(3,5-dichloro-4-((5-cyclopentyl-6-oxo-1,6-dihydropyridazin-3-yl)oxy)phenyl)-6-(fluoromethyl)-1,2,4-triazine-3,5(2H,4H)-dione] | –
2 | 42 | 117 | 230 | 124 | O=c1[nH]nc(Oc2c(Cl)cc(-n3nc(CF)c(=O)[nH]c3=O)cc2Cl)cc1C1CCC1 [Example 14, 2-(3,5-dichloro-4-((5-cyclobutyl-6-oxo-1,6-dihydropyridazin-3-yl)oxy)phenyl)-6-(fluoromethyl)-1,2,4-triazine-3,5(2H,4H)-dione] | –
3 | > 10000 | – | – | – | CC(C)c1cc(Oc2c(Cl)cc(-n3nc(O)c(=O)[nH]c3=O)cc2Cl)n[nH]c1=O [Example 20, 2-(3,5-dichloro-4-((5-isopropyl-6-oxo-1,6-dihydropyridazin-3-yl)oxy)phenyl)-6-hydroxy-1,2,4-triazine-3,5(2H,4H)-dione] | –

Second part, the compound before the results:

Row | Compound | EC50 (THRβ) [nM] | Emax (THRβ) [%] | EC50 (THRα) [nM] | Emax (THRα) [%] | further results
4 | CC(C)c1cc(Oc2c(Cl)cc(-n3nc(C#N)c(=O)[nH]c3=O)cc2Cl)n[nH]c1=O [Control compound 2, MGL-3196, reference compound] | – | – | – | – | half-life at 1 μM (in vitro; dog): 2 h; microsomal CLint at 1 μM (in vitro; dog): 28.9 µL/min/mg; half-life at 1 μM (in vitro; human): 5.18 h; microsomal CLint at 1 μM (in vitro; human): 11.2 µL/min/mg; half-life at 1 μM (in vitro; monkey): 4.96 h; microsomal CLint at 1 μM (in vitro; monkey): 11.6 µL/min/mg; half-life at 1 μM (in vitro; rat): 12.8 h; microsomal CLint at 1 μM (in vitro; rat): 4.5 µL/min/mg
5 | CC(C)c1cc(Oc2c(Cl)cc(-n3nc(CF)c(=O)[nH]c3=O)cc2Cl)n[nH]c1=O [Example 2] | 5 | 92.8 | 190 | 107 | half-life at 1 μM (in vitro; dog): 4.4 h; microsomal CLint at 1 μM (in vitro; dog): 13.1 µL/min/mg; half-life at 1 μM (in vitro; human): 17.1 h; microsomal CLint at 1 μM (in vitro; human): 3.4 µL/min/mg; half-life at 1 μM (in vitro; monkey): 8.92 h; microsomal CLint at 1 μM (in vitro; monkey): 6.5 µL/min/mg; half-life at 1 μM (in vitro; mouse): 3.12 h; microsomal CLint at 1 μM (in vitro; mouse): 18.5 µL/min/mg; half-life at 1 μM (in vitro; rat): 12.3 h; microsomal CLint at 1 μM (in vitro; rat): 4.7 µL/min/mg
6 | O=c1[nH]nc(Oc2c(Cl)cc(-n3nc(CF)c(=O)[nH]c3=O)cc2Cl)cc1C1CCCCC1 [Example 9, 2-(3,5-dichloro-4-((5-cyclohexyl-6-oxo-1,6-dihydropyridazin-3-yl)oxy)phenyl)-6-(fluoromethyl)-1,2,4-triazine-3,5(2H,4H)-dione] | 101 | 108 | 4260 | 123 | –
7 | O=c1[nH]nc(Oc2c(Cl)cc(-n3nc(CF)c(=O)[nH]c3=O)cc2Cl)cc1C1CC1 [Example 12, 2-(3,5-dichloro-4-((5-cyclopropyl-6-oxo-1,6-dihydropyridazin-3-yl)oxy)phenyl)-6-(fluoromethyl)-1,2,4-triazine-3,5(2H,4H)-dione] | 71 | 105 | 210 | 127 | –
8 | CC(C)(F)c1cc(Oc2c(Cl)cc(-n3nc(CF)c(=O)[nH]c3=O)cc2Cl)n[nH]c1=O [Example 16, 3-(3,5-dichloro-4-((5-(2-fluoropropan-2-yl)-6-oxo-1,6-dihydropyridazin-3-yl)oxy)phenyl)-6-(fluoromethyl)-1,2,4-triazine-3,5(2H,4H)-dione] | 164 | 111 | – | – | –
9 | C=C(C)c1cc(Oc2c(Cl)cc(-n3nc(CF)c(=O)[nH]c3=O)cc2Cl)n[nH]c1=O [Example 18, 2-(3,5-dichloro-4-((6-oxo-5-(prop-1-en-2-yl)-1,6-dihydropyridazin-3-yl)oxy)phenyl)-6-(fluoromethyl)-1,2,4-triazine-3,5(2H,4H)-dione] | 23.6 | 124 | – | – | –
10 | CC(C)c1cc(Oc2c(Cl)cc(-n3nc(C4CC4)c(=O)[nH]c3=O)cc2Cl)n[nH]c1=O [Example 19, 6-cyclopropyl-2-(3,5-dichloro-4-((5-isopropyl-6-oxo-1,6-dihydropyridazin-3-yl)oxy)phenyl)-1,2,4-triazine-3,5(2H,4H)-dione] | 7250 | 77.7 | – | – | –
